Type in all cases: cell-based
One test deals with T1, M1 muscarinic receptor (Homo sapiens, UniProt P11229).
T1 construct: expressed in transfected cells; host or cells: CHO (M1-CHO)
T1 sequence (P11229 1-460): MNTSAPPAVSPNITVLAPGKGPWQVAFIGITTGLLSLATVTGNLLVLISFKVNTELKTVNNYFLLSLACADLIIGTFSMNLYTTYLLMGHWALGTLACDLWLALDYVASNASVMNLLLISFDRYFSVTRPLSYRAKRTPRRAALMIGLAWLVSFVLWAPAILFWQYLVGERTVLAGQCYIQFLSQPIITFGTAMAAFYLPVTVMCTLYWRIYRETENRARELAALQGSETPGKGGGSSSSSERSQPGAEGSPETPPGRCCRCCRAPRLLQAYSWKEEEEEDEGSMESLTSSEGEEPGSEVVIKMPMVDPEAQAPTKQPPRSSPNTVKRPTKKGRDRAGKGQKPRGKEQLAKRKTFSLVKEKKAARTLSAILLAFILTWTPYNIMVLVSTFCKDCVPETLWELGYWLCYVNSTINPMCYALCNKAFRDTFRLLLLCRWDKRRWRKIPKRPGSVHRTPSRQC
Put plainly: Functional mobilization of intracellular calcium (FLIPR) in CHO cells expressing M1. Conditions: for EC50: CHO cells expressing M1, FLIPR calcium; for Emax: CHO, 100% = maximum response obtained with the Carbachol control, read-out: M1 Efficacy. On the procedure: (§1) Functional Mobilization of Intracellular Calcium to Determine Muscarinic Receptor Activity:
(§2) CHO cells expressing muscarinic receptors (M1 to M5) are grown as monolayers in tissue culture flasks at 37° C. in a humidified atmosphere containing 5% CO2 and passaged every 3-5 days. The growth media is Dulbecco's modified eagles medium (DMEM, Gibco Cat# 12430-054), containing 25 mM Hepes and supplemented with Fetal Bovine Serum (Hyclone, cat# SH30071.03), 0.1 mM of MEM non-essential amino acids (GIBCO, Cat# 11140-050), 1 mM MEM Sodium Pyruvate (GIBCO Cat# 11360-070) and 100 units/ml of Penicillin G and 100 μg/ml of Streptomycin (GIBCO Cat# 15140-122). The recombinant muscarinic receptor cell lines are grown under antibiotic pressure with media containing 25 μg/ml zeocin and 500 μg/ml G418 (M1-CHO), 4 μg/ml puromycin, 50 μg/ml zeocin and 2.5 μg/ml blasticidin (M2 and M4-CHO) or 50 μg/ml zeocin and 4 μg/ml puromycin (M3 and M5-CHO).
(§3) Cells are harvested at 80-90% confluence using Versene (GIBCO Cat# 15040-066), collected by centrifugation and seeded 18-24 hrs prior to running the calcium assay at a density of 5,000-10,000 cells/well in […], clear-bottomed 384-well plates (BD Biocoat, poly-D-lysine, Cat#356663). The day of the experiment, the cells are washed with a plate washer (Bioteck Instruments, ELX 405) using bath 1 buffer (140 mM NaCl, 4,5 mM KCl, 2 mM CaCl2, 1 mM MgCl2, 10 mM Hepes-Na, 10 mM Glucose, pH 7.4, with NaOH) containing 1 mM Probenecid. Next, the calcium dye Fluo-3 (25 μl/well of Fluo-3 AM at 4 μM, Molecular Probes F-1241, in Bath 1 buffer containing 1 mM Probenecid) is added to the 25 μl of Bath 1 remaining in each well after the plate wash and the dye is loaded at 37° C. in the tissue culture incubator for 60-90 min. The fluorescent dye is removed using the plate washer with Bath 1 containing 1 mM Probenecid, leaving 25 μl/well of this solution after the wash. Alternatively, cells can be loaded with the calcium indicator from Molecular Devices (Calcium 3 Assay Reagents, Cat #R7181) adding 5 μl of a 5× solution dye in Bath 1 containing 1 mM Probenecid (10 ml per dye flask cat#R7182 to generate a solution […]) to 20 μl of the same buffer. After loading for 60 min, the experiment can be run without having to remove the dye.
(§4) Compounds are prepared at a 2× fold concentration in a 96-well plate (round bottom, Costar Corning cat#3656), by reconstituting the pre-spotted compounds in bath 1 containing 1 mM probenecid. The final concentration DMSO is 0.5%, and the amount of DMSO is normalized across the assay plate. To determine an agonist action of the compounds on muscarinic receptors, the reconstituted compounds are added (25 μl compound/well) to the cell assay plate (containing 25 μl/well) using the multi-channel robotic system of the FLIPR 3 Instrument (Molecular Devices, Sunnyvale, Calif.). To determine a functional inhibitory action of the compounds on muscarinic receptors, the reconstituted compounds are added (25 μl compound/well) to the assay plate and pre-incubated for 15 min prior to adding 25 μl of Carbachol at 3× the EC80 for each muscarinic subtype. Alternatively, the compounds can be co-applied simultaneously with the agonist. In both assay modes, the fluorescence is recorded for 60 sec (excitation wavelength is […] and emission wavelength 540 nm) using the FLIPR 3 instrument.
(§5) The potency, efficacy and selectivity of the muscarinic compounds were evaluated by screening the compound activity across the whole family (M1 to M5 cells). Compounds were also screened for activity on other proteins such as other GPCRs and ion channels to determine selectivity on M4 receptors.
For orientation: Calcium flux is commonly read through the fluorescence of an indicator in the cells.

A further test deals with T2, M2 muscarinic receptor (Homo sapiens, UniProt P08172).
T2 construct: expressed in transfected cells; host or cells: CHO (M2-CHO)
T2 sequence (P08172 1-466): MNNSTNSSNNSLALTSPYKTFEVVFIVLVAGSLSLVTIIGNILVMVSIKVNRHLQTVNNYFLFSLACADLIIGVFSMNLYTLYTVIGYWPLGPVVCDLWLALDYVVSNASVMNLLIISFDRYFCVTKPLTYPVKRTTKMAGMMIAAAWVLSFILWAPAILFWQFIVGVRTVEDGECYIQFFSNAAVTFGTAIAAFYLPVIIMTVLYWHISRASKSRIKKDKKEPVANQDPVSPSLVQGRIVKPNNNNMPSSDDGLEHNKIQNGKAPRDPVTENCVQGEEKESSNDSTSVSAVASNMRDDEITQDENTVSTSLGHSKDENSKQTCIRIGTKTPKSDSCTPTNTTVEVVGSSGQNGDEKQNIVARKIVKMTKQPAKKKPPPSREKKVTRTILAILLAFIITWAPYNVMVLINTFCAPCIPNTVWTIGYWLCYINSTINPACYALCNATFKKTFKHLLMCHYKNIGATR
Put plainly: Functional mobilization of intracellular calcium (FLIPR) in CHO cells expressing M2. The conditions noted are these: for EC50: CHO cells expressing M2, FLIPR calcium; for Emax: CHO, 100% = maximum response obtained with the Carbachol control, read-out: M2 Efficacy. On the procedure: as §1, §2, §3, §4, §5

Another test has as its target T3, M3 muscarinic receptor (Homo sapiens, UniProt P20309).
T3 construct: expressed in transfected cells; host or cells: CHO (M3-CHO)
Briefly: Functional mobilization of intracellular calcium (FLIPR) in CHO cells expressing M3. Conditions: for EC50: CHO cells expressing M3, FLIPR calcium; for Emax: CHO, 100% = maximum response obtained with the Carbachol control, read-out: M3 Efficacy. On the procedure: as §1, §2, §3, §4, §5

In the next test the target is T4, M4 muscarinic receptor (Homo sapiens, UniProt P08173).
T4 construct: expressed in transfected cells; host or cells: CHO (M4-CHO)
T4 sequence (P08173 1-479): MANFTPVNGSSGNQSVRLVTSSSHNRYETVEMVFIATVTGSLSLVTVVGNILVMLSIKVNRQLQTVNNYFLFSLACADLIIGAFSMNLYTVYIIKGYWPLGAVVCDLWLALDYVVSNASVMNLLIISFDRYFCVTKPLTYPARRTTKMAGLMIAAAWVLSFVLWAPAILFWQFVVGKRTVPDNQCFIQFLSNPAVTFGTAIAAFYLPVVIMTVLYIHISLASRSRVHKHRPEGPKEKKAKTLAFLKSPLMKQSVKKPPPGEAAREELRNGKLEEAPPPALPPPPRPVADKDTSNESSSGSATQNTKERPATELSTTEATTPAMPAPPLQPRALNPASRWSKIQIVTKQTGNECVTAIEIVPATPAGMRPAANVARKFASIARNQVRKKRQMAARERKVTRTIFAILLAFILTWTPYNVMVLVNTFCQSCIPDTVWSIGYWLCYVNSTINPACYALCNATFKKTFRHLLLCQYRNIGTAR
Put plainly: Functional mobilization of intracellular calcium (FLIPR) in CHO cells expressing M4. The conditions noted are these: for EC50: CHO cells expressing M4, FLIPR calcium; for Emax: CHO, 100% = maximum response obtained with the Carbachol control, read-out: M4 Efficacy. On the procedure:
as §1, §2, §3, §4, §5

T3 sequence (P20309 whole entry): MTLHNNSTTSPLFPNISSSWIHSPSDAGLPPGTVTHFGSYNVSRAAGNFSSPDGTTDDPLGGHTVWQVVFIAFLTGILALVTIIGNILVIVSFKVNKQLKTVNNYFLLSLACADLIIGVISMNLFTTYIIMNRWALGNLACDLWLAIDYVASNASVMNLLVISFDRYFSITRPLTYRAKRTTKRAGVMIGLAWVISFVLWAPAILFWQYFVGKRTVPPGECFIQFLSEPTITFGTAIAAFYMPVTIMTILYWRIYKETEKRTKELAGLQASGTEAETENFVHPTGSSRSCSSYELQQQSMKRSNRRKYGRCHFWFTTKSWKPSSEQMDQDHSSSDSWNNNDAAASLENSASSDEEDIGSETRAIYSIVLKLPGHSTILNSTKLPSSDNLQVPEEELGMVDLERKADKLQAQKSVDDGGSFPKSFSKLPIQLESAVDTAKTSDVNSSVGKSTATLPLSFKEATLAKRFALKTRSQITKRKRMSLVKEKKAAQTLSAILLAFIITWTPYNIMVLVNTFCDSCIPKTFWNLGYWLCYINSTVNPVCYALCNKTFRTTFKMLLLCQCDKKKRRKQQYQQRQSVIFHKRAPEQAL

The EC50 is the concentration at which the effect is half-maximal. For the molecule `CC(C)(C)CCN1CCC2(CC[C@@H](NC(=O)CC3CCCC3=O)c3ccc(F)cc32)CC1` (stereo partly drawn) [compound 17], the EC50 on M1 muscarinic receptor was under 2000 nM; on M2 muscarinic receptor it was over 5 µM; on M3 muscarinic receptor it was over 5 µM; on M4 muscarinic receptor, under 2000 nM. Also, the Emax on M1 muscarinic receptor is 25 to 100%; at M2 muscarinic receptor, under 25%; at M3 muscarinic receptor, under 25%; at M4 muscarinic receptor, 25 to 100%.

`CC(=O)CCC(=O)N[C@H]1CCC2(CCN(CCC(C)(C)C)CC2)c2ccccc21` [compound 18]: the EC50 was under 2000 nM at M1 muscarinic receptor, under 2 µM at M2 muscarinic receptor, over 5 µM on M3 muscarinic receptor and under 2000 nM on M4 muscarinic receptor. In addition, the Emax on M1 muscarinic receptor was 25 to 100%; on M2 muscarinic receptor, 25 to 100%; on M3 muscarinic receptor, under 25%; on M4 muscarinic receptor, 25 to 100%.

With `COC(C)(C)CCCC(C)CCN1CCC2(CC[C@H](NC(=O)N(C)C)c3ccccc32)CC1` (stereo partly drawn) [compound 19], the EC50 was over 5000 nM at M1 muscarinic receptor, over 5 µM at M2 muscarinic receptor, over 5 µM on M3 muscarinic receptor and over 5000 nM at M4 muscarinic receptor. The Emax at M1 muscarinic receptor, on M2 muscarinic receptor, at M3 muscarinic receptor and at M4 muscarinic receptor was under 25% in each case.

`CC(=O)NCCC(=O)N[C@@H]1CCC2(CCN(CCC(C)(C)C)CC2)c2cc(F)ccc21` [compound 20]: the EC50 on M1 muscarinic receptor is under 2000 nM; on M2 muscarinic receptor, under 2 µM; on M3 muscarinic receptor it was over 5 µM; on M4 muscarinic receptor, under 2000 nM. Moreover, the Emax on M1 muscarinic receptor is 25 to 100%; at M2 muscarinic receptor it was 25 to 100%; on M3 muscarinic receptor, under 25%; on M4 muscarinic receptor it was 25 to 100%.

`CCOCCC(=O)N[C@@H]1CCC2(CCN(CCC(C)(C)C)CC2)c2ccccc21` [compound 21]: the EC50 on M1 muscarinic receptor was under 2000 nM; at M2 muscarinic receptor it was under 2 µM; on M3 muscarinic receptor, over 5 µM; on M4 muscarinic receptor, under 2000 nM. Moreover, the Emax is 25 to 100% on M1 muscarinic receptor, 25 to 100% at M2 muscarinic receptor, under 25% on M3 muscarinic receptor and 25 to 100% at M4 muscarinic receptor.

For the molecule `C[C@@H](C(=O)N[C@@H]1CCC2(CCN(CCC(C)(C)C)CC2)c2cc(F)ccc21)N1CCCC1=O` [compound 22], the EC50 was 2000 to 5000 nM on M1 muscarinic receptor, 2 to 5 µM at M2 muscarinic receptor, over 5 µM on M3 muscarinic receptor and under 2000 nM at M4 muscarinic receptor. For the same molecule, the Emax on M1 muscarinic receptor is 25 to 100%; on M2 muscarinic receptor, under 25%; at M3 muscarinic receptor it was under 25%; on M4 muscarinic receptor it was 25 to 100%.

Take `CC(C)C[C@@H](C(=O)N[C@H]1CCC2(CCN(CCC(C)(C)C)CC2)c2ccccc21)N1CCCC1=O` [compound 23]: the EC50 was 2000 to 5000 nM on M1 muscarinic receptor, over 5 µM at M2 muscarinic receptor, over 5 µM at M3 muscarinic receptor and under 2000 nM at M4 muscarinic receptor. For the same molecule, the Emax at M1 muscarinic receptor was under 25%; at M2 muscarinic receptor, under 25%; on M3 muscarinic receptor, under 25%; at M4 muscarinic receptor, 25 to 100%.

As to `CCN(C(=O)C1CCC(OC)CC1)[C@H]1CCC2(CCN(CCC(C)(C)C)CC2)c2ccccc21` (stereo partly drawn) [compound 24], the EC50 at M1 muscarinic receptor is over 5000 nM; on M2 muscarinic receptor it was under 2 µM; at M3 muscarinic receptor, over 5 µM; on M4 muscarinic receptor, under 2000 nM. The Emax on M1 muscarinic receptor is under 25%; at M2 muscarinic receptor it was 25 to 100%; at M3 muscarinic receptor it was under 25%; on M4 muscarinic receptor, 25 to 100%.

As to `CN1CC(C(=O)N[C@@H]2CCC3(CCN(CCC(C)(C)C)CC3)c3ccccc32)CC1=O` (stereo partly drawn) [compound 25], the EC50 at M1 muscarinic receptor was over 5000 nM; on M2 muscarinic receptor it was over 5 µM; at M3 muscarinic receptor it was over 5 µM; at M4 muscarinic receptor it was under 2000 nM. Also, the Emax at M1 muscarinic receptor was under 25%; at M2 muscarinic receptor, under 25%; at M3 muscarinic receptor it was under 25%; on M4 muscarinic receptor, 25 to 100%.
